What was measured:
[1] = system: diffuse axonal injury in rats (impact acceleration injury); experiment: Impact acceleration injury model in rats: APP / active caspase-3 positive axons by immunohistochemistry; type: in vivo, Sprague-Dawley rats; details: for APP positive axons: 30 days post injury, p<0.05 versus 148 in unsupplemented animals (sham 6)
From the text: (§1) Method. The impact acceleration injury model in rats described in Marmarou et al., J Neurosurg. 80:291-300 (1994), incorporated herein by reference, was used for the study. Four groups of ten (n=40) of adult male Sprague-Dawley rats were subjected to an impact acceleration injury resulting in reproducible severe traumatic brain injury. Rats weighing between 350 and 400 g received induction anesthesia and subsequently maintained on inhaled anesthetic using a modified medical anesthesia machine. The animals were shaved and prepared in sterile fashion for surgery, followed by subcutaneous injection of local anesthetic into the planned incision site. A 3 cm midline incision in the scalp was made, periosteal membranes separated, exposing bregma and lambda. A metal disk 10 mm in diameter and 3 mm thick was attached to the skull with cyanoacrylate and centered between bregma and lambda. The animal was placed prone on a foam bed with the metal disk directly under a plexiglas tube. A 450 g brass weight was dropped through the tube from a height of 2 meters striking the disk. The animal was then ventilated on 100% O2 while the skull inspected and the incision repaired. When the animal recovered spontaneous respirations, anesthesia was discontinued and the animal returned to its cage for postoperative observation (Marmarou et al., supra). All procedures involving live animals were approved by the Institutional Animal Care and Use Committee of West Virginia University, and were performed according to the principles of the Guide for the Care and Use of Laboratory Animals, published by the Institute of Laboratory Resources, National Research Council (NIH publication 85-23-2985).
(§2) DHA supplementation and serum level monitoring. The four groups received dietary supplementation with DHA (Martek, Columbia, Md.). Two of the four groups received dietary supplementation DHA daily in the following amounts: Group 1, 10 mg/kg/day; Group 2, 40 mg/kg/day. Groups 3 served as an unsupplemented control, and Group 4 underwent sham injury and received no supplementation. Each group received rat chow ad lib and were housed in a small animal vivarium under veterinary staff supervision. Fatty acid blood testing was performed prior to the injury and at the end of the 30 days of DHA supplementation by analyzing the isolated serum phospholipids (including DHA, EPA and Arachidonic acid) from 50 microliter blood samples using a previously described method (Holub and Skeaff, Methods Enzymol. 141:234-44 (1987); Nutrasource Diagnostics, University of Guelph, Ontario, Canada).
Tissue Preparation and Immunohistochemical Labeling. Following 30 day post-injury, surviving animals were euthanized with a lethal dose injection of 0.5 ml Ketamine and 0.5 ml Xylazine. […]

[2] = Serum phospholipid fatty acid levels after DHA supplementation following brain trauma; type: in vivo, Sprague-Dawley rats; details: for increased levels of serum DHA over initial levels: dietary, serum phospholipids
Procedure: as §2

[3] = Tolerability of daily oral supplementation in the impact acceleration model; type: in vivo; details: 10 or 40 mg/kg/day
From the text: as §1, with “All procedures involving live animals were approved by the Institutional Animal Care and Use Committee of West Virginia University, and were performed according to the principles of the Guide for the Care and Use of Laboratory Animals, published by the Institute of Laboratory Resources, National Research Council (NIH publication 85-23-2985).” left out

CC/C=C\C/C=C\C/C=C\C/C=C\C/C=C\C/C=C\CCC(=O)O [DHA, (all-Z)-4,7,10,13,16,19-docosahexaenoic acid]
APP positive axons ([1]; 10 mg/kg/day DHA, corticospinal tract and medial lemnisci): 26 axons per mm^2
APP positive axons ([1]; 40 mg/kg/day DHA, corticospinal tract and medial lemnisci): 20 axons per mm^2
APP labeling of axons, qualitative ([1]; 10 or 40 mg/kg/day DHA, corticospinal tract and medial lemnisci): only rare APP positive axons, similar to sham injured animals
active caspase-3 positive axons ([1]; 10 or 40 mg/kg/day oral, 30 days following injury, data not shown): significant decrease
decrease in AA:EPA ratio, a marker of inflammation ([2]; 10 mg/kg/day DHA, 30 days after brain trauma, serum): 72%
increased levels of serum DHA over initial levels ([2]; 10 mg/kg/day DHA, 30 days after brain trauma): 123%
increased levels of serum DHA over initial levels ([2]; 40 mg/kg/day DHA, 30 days after brain trauma): 176%
total EPA and DHA in serum phospholipids compared to the sham animals ([2]; end of supplementation period, 10 and 40 mg/kg/day): dose-response effect in the increase
serum arachidonic acid levels ([2]; supplemented animals, end of supplementation period): non-significant increase
observed untoward effects of daily oral supplementation [3]: without any observed untoward effects

Reference: patent publication US20110086914A1, “Methods for Treating Traumatic Brain Injury” (priority 2009, published 2011)
